Reference: ChEMBL document CHEMBL5537157, “Selective Antitumor Effect and Lower Toxicity of Mitochondrion-Targeting Derivatization of Triptolide” (J Med Chem, 2024)

Columns and labels:
NCI-H1975 [1] = assay: Cytotoxicity against human NCI-H1975 cells assessed as cell growth inhibition incubated for 48 hrs by MTT assay; type: functional, cell-based
A549 = assay: Cytotoxicity against human A549 cells assessed as cell growth inhibition incubated for 48 hrs by MTT assay; type: functional, cell-based
[2] = Renal toxicity in zebrafish assessed as FITC dye residue at 0.25 to 1 uM treated for 24 hrs followed by dye treatment measured after 6 hrs by fluorescence microscopy; parameters: species or system Danio rerio; details: in vivo, 30 h, dose 0.25-1 µM
[3] = Renal toxicity in zebrafish assessed as increase in Kim1 expression at 2 uM treated for 48 hrs by RT-qPCR analysis; parameters: species or system Danio rerio; details: in vivo
[4] = Renal toxicity in zebrafish assessed as FITC dye residue at 2 uM treated for 24 hrs followed by dye treatment measured after 6 hrs by fluorescence microscopy; parameters: species or system Danio rerio; details: in vivo, 30 h
BEAS-2B = assay: Induction of apoptosis in human BEAS-2B cells at 50 to 400 nM incubated for 24 hrs by Annexin V-FITC/PI staining based flow cytometry; type: toxicity, cell-based; details: 0.4 µM, dose 50-400 nM
[5] = Toxicity in zebrafish embryo assessed as liver function at 1 uM with replacement of new growth solution daily by fluorescence microscopy (reference value: 100 +/- 8.89 %); type: tissue-based, Danio rerio; details: in vivo
[6] = Toxicity in zebrafish embryo assessed as liver development at 1 uM with replacement of new growth solution daily by fluorescence microscopy (reference value: 100.00 +/- 8.64 %); type: tissue-based, Danio rerio; details: in vivo
[7] = Drug accumulation in mitochondria of human NCI-H1975 cells at 600 nM incubated for 5 hrs by Red CMXRos probe based analysis; type: ADME; details: nci-h1975, 5 h, 0.6 µM
[8] = Developmental toxicity in zebrafish AB zygotes assessed as decrease in body length treated at 6 hrs post-fertilization measured at 24 to 72 hrs post-fertilization; parameters: species or system Danio rerio; details: in vivo, dose lower 0.25 µM, time lower 18 hrs, dose upper 4 µM, time upper 66 hrs
[9] = Renal toxicity in zebrafish assessed as yolk sac absorption at 0.5 to 4 uM treated at 3 hrs post-fertilization measured at 48 hrs post-compound treatment by FITC staining based microscopy; parameters: species or system Danio rerio; details: in vivo, dose 0.5-4 µM
NCI-H1975 [10] = assay: Cytotoxicity against human NCI-H1975 cells assessed as inhibition of cell viability incubated for 48 hrs by MTT assay; type: functional, cell-based; details: NCI-H1975, 48 h

Row | SMILES | inhibition (NCI-H1975 [1]) | inhibition (A549) | Activity [2] | Activity [3] | Activity [4] | Activity (BEAS-2B) | Activity [5] | Activity [6] | Drug uptake [7] | Activity [8] | Activity [9] | IC50 (NCI-H1975 [10])
1 | CC(C)[C@]12O[C@H]1[C@@H]1O[C@@]13[C@@]1(C)CCC4=C(COC4=O)[C@@H]1C[C@@H]1O[C@@]13C2=O [TRIPTONIDE] | Dose-Dependent Effect | Dose-Dependent Effect | Toxic | – | – | – | – | – | – | – | – | –
2 | CC(C)[C@]12O[C@H]1[C@@H]1O[C@]13[C@]1(O[C@H]1C[C@H]1C4=C(CC[C@@]13C)C(=O)OC4)[C@@H]2OC(=O)CCCCCCCC[n+]1ccc(/C=C/c2c[nH]c3ccccc23)cc1.[Br-] | – | – | – | Toxic | Toxic | Non-Toxic | 27.18% | 76.24% | Active | Dose-Dependent Effect | Non-Toxic | 210 nM
